Measured values reported in patent publication US20110287936A1, “GENE SWITCH COMPOSITIONS AND METHODS OF USE” (priority 2010, published 2011).

What was measured:
[1] = test system: tetA promoter (PtetA)-lacZ reporter in E. coli strain KM3; type: cell-based; conditions: L1 hits, 20 μg/ml
[2] = test system: BSV(AY) PRO::tetOp::ODP2 with ESR(3E3); experiment: Inducible callus initiation from maize leaf pieces; type: in vivo; conditions: 100 mg/L chlorsulfuron, two weeks
Description: Immature maize embryos from maize inbred PHN46 were transformed as describe in Example 5D using Agrobacterium comprising the following: • RB-BSV(AY) PRO::tetOp::Adh1 Intron::ODP2::pinII+35S ENH::ALS PRO::HRA::pinII+Ubi Pro::ESR(3E3)::pinII-LB.
Events were selected on 100 μg/l chlorsulfuron, and plantlets were regenerated in the absence of the SU compound. When the plantlets were approximately 20 cm tall, the leaves were cut into approximately 2-4 mm cross-sections and placed on embryogenic culture medium+/−100 mg/L chlorsulfuron.

[3] = test system: BSV:tetOp or 35S:tetOp::dsRed with Ubi:ESR(3E3); experiment: Maize callus RFP de-repression on chlorsulfuron selection; type: in vivo
Text: (§1) The BSV::tetOp promoter and the MP1::tetOp promoter were synthesized and cloned into expression cassettes driving expression of the DsRED (RFP) gene for testing. For all comparisons of RFP expression, side-by-side comparisons were made within experiment by taking micrographs of the tissue at the same exposure and qualitatively ranking fluorescence intensity, assigning the scores in the table below. The DsRED protein is very stable (has a relatively long half-life), and even with low expression levels in the cell can accumulate over time.
Maize immature embryos were transformed with Agrobacterium as generally described in Example 5D. Transformants were generated that contained one of the two T-DNAs shown below: • RB-BSV:tetOp::Adh Intron::dsRed+ALS:HRA+Ubi:ESR(3E3)-LB • RB-35S:tetOp::Adh intron::dsRed+ALS:HRA+Ubi::ESR(3E3)-LB
Selection of transgenic events was performed using 30, 100, or 500 μg/L chlorsulfuron.

[4] = test system: 35S PRO:3xTetOp:dsRED reporter with ESR(L13-2-23); experiment: Rice callus RFP induction by sulfonylureas; type: in vivo; conditions: for RFP Score: 20 hours, rice callus
Description: Mature seed of rice were surface sterilized and placed on callus induction medium (Chu (N6) salts, Eriksson's vitamins, 0.5 mg/L thiamine, 2 mg/L 2,4-D, 2.1 g/L proline, 30 g/L sucrose, 300 mg/L casein hydrolysate, and 100 mg/L myo-inositol, adjusted to pH 5.8). After one week, callus was transformed using Agrobacterium LBA4404, delivering the following T-DNA: • RB-35S PRO:3xTetOp:dsRED::pinII+35S PRO::Adh intron::ESR(L13-2-23)::UBI TERM+Sb-ALS PRO::HRA::pinII-LB
Transgenic events were visually selected as […] calli growing on 100 PPB ethametsulfuron. […] Non-fluorescing events were then transferred to plates of medium containing varying amounts of sulfonylureas (SU). For the control, there was no SU, with additional treatments containing 100 or 500 ppb chlorsulfuron, and 100 or 500 ppb ethametsulfuron, After 20 hours of the induction treatment, micrographs were taken at the same exposure and scored (see Example 7 for scoring criteria) as shown in the table below
as §1

[5] = test system: 35S/TripleOp/Pro::RFP reporter; experiment: Maize callus and seedling RFP de-repression; type: in vivo; conditions: 1 mg/l doxycycline; callus and plants with UBI::TetR expression cassette
[6] = test system: 35S PRO:tetOp::moCRE with ESR(L13-2-23), loxP AmCYAN/ZsYELLOW reporter; experiment: Ethametsulfuron-induced Cre excision in rice callus; conditions: rice calli, 250 μg/L ethametsulfuron, one week
Description: (§2) Herbicide-resistant, blue fluorescent co-transformed calli were recovered and tested for SU-inducible excision. Calli were split onto media+/−250 μg/L ethametsulfuron.

[7] = test system: 35S PRO:tetOp::moCRE with ESR(L13-2-23), lox66/lox71 AmCYAN/ZsYELLOW reporter; experiment: Ethametsulfuron-induced Cre inversion in maize callus; conditions: 250 μg/L ethametsulfuron, one week
[8] = test system: 35S PRO:tetOp::moCRE with ESR(L13-2-23), loxP AmCYAN/ZsYELLOW reporter; experiment: Ethametsulfuron-induced Cre excision in maize callus; conditions: maize calli, 250 μg/L ethametsulfuron, one week
Description: as §2

SMILES: CCOC(=O)c1ccccc1S(=O)(=O)NC(=O)Nc1nc(Cl)cc(OC)n1 [chlorimuron, Chlorimuron-ethyl]
- potency as activator compared with Harmony® [1]: more potent activators than the starting ligand Harmony®

SMILES: COc1nc(C)nc(NC(=O)NS(=O)(=O)c2ccccc2Cl)n1 [chlorsulfuron, 2 chloro N((4 methoxy 6 methy 1,3,5 triazine 2 yl)aminocarbonyl)benzenesulfonamide]
- callus initiation from leaf pieces [2]: producing callus from the leaf segments
- potency as activator compared with Harmony® [1]: more potent activators than the starting ligand Harmony®
- RFP Score ([3]; 30 μg/l, six weeks): 0
- RFP fluorescence ([3]; 100 μg/l, six weeks): small sectors of RFP fluorescence were observed
- RFP fluorescence ([3]; 500 μg/l, six weeks): large segments of the calli were brightly fluorescing
- activity as inducer of the ethametsulfuron repressor, fold less ([3]; in vivo): approximately 10 fold
- RFP Score ([4]; 100 ppb): 0-1
- RFP Score ([4]; 500 ppb): 2-3

SMILES: C[C@H]1c2cccc(O)c2C(=O)C2=C(O)[C@]3(O)C(=O)C(C(N)=O)=C(O)[C@@H](N(C)C)[C@@H]3[C@@H](O)[C@@H]21 [doxycycline]
- induction period [5]: 5 to 6 days

SMILES: CCOc1nc(NC)nc(NC(=O)NS(=O)(=O)c2ccccc2C(=O)OC)n1 [ethametsulfuron, Ethametsulfuron-methyl]
- SU-inducible excision [6]: yellow fluorescent sectors were observed
- SU-inducible inversion [7]: sectors exhibiting only yellow fluorescent
- potency as activator compared with Harmony® [1]: more potent activators than the starting ligand Harmony®
- SU-inducible excision [8]: yellow fluorescent sectors were observed
- level of RFP induction, comparison of ligands ([4]; 100 and 500 ppb): induced to a greater level than chlorsulfuron
- RFP Score ([4]; 100 ppb): 1-2
- RFP Score ([4]; 500 ppb): 4
